The values below come from patent US12240825B2, “Oxexin 1 receptor antagonists” (Heptares Therapeutics Limited, priority 2019, dated 2025).

In general, Kd refers to a measure of binding affinity in units of concentration.

Assay [1] addresses T1, Human OX1 receptor (Homo sapiens (Human), UniProt O43613). The experiment in a line: IPone accumulation assay, CHO cells expressing OX1. The assay is classed as cell-based. Particulars: antagonism of orexin A (EC80 ~20 nM)-induced inositol phosphate turnover, read-out: fpKb average OX1 (converted). The procedure: Generation of CHO stable cell lines expressing the human OX1R and OX2R. Stable cell lines for the human OX1R and OX2R receptors were generated through the transfection of CHO cells using the transfection reagent Genejuice (Novagen number 70967) and cDNA coding for either the human OX1R or OX2R. Cells were cultured in Sigma Nutrient Mixture F-12 Ham media (catalog number N6658) supplemented with 10% heat-inactivated FBS. Forty-eight hours after transfection, cells were harvested and placed under geneticin selection by culturing in Sigma Nutrient Mixture F-12 Ham media supplemented with 10% heat-inactivated FBS and geneticin (ThermoFisher Catalog number: 10131035). Selection of the final stable clone for each receptor was made on the basis of receptor expression, assay signal to noise and robustness though increasing passage. Selected clones for the human OX1R and OX2R were then frozen down into liquid nitrogen using Cell Freezing Medium-DMSO (Sigma-Aldrich catalog number: C6164).
(§1) IPone accumulation assay. A CHO cell line stably expressing either human OX1 or OX2 receptor was used with the IPone HTRF assay kit (CisBio: Part #62IPAPEJ) to measure receptor activation. The assay was optimised to measure the ability (potency; fpKb) of antagonists to reduce agonist (orexin A)-induced inositol phosphate turnover. Briefly, cells were plated onto half area 96-well white walled plates at a density of 12,500 cells/well. Sixteen hours post-plating cell growth media was replaced with antagonist concentration-response curve diluted in stimulation buffer (supplied with the kit). Cells were incubated in a humidified incubator (37° C.) for 30 min before an EC80 challenge concentration (˜20 nM (OX1) and 40 nM (OX2)) of orexin A (Tocris catalogue number 1455). After 30 min stimulation in a humidified incubator (37° C.) the assay was terminated by the addition of detection mixture as per manufacturer's instructions. The concentration of compound which reduced orexin-A stimulated turnover of inositol phosphates by 50% (IC50) was calculated by fitting to a four parameter sigmoidal dose response curve. The IC50 values were converted to fpKB values using the orexin A pEC50 value estimated on each plate as well as the challenge concentration interpolated from the orexin A control curve.

Assay [2] concerns the target T2, Human OX2 receptor (Homo sapiens (Human), UniProt O43614). Description: [3H]-radioligand binding assay, OX2. To be noted: for pKi average OX2: competition binding, membranes of SF21 cells, Ki by Cheng-Prusoff. The source says:
(§2) Cloning, Baculovirus generation, large-scale infection of SF21 cells and membrane preparation. Human OX1 or OX2 receptor were cloned into Invitrogen's (ThermoFisher Scientific, UK) Bac-to-Bac Baculovirus Expression System. P0 baculovirus was generated by transfecting SF9 cells with bacmid DNA using Cellfectin® II transfection reagent (ThermoFisher Scientific, UK, Catalog number 10362-100). Following P0 generation P1 virus was then generated ready for large scale infection and membrane preparation. SF21 cells were grown in expression medium ESF921 (Expression Systems, USA, catalog number 96-001-01) supplemented with 10% heat-inactivated FBS and 1% Pen/Strep and were infected at a cell density of 2.5×10^6 cells/mL and a multiplicity of infection of 1.0 for both human OX1R and OX2R. Incubation was carried out at over 48 h in a shaking incubator set at 27° C. The cell culture was then centrifuged at 2,500 rcf for 10 min at 4° C. The pellets were resuspended in cold PBS supplemented with Roche's Complete EDTA-free protease inhibitor cocktail tablets (Roche Applied Sciences, catalog number 05056489001), 1 mM PMSF and 1 mM EDTA. The resuspended cell paste was then centrifuged at 3,273 rcf for 12 min at 4° C. The supernatant was discarded and the pellet frozen at −80° C. The cell pellet from a 4 L culture was resuspended in buffer containing 50 mM HEPES pH 7.5, 150 mM NaCl, 8 Roche EDTA-Free protease inhibitor cocktail tablets and 1 mM PMSF. The suspension was left stirring at rt for 1 h and then homogenised for 90 s at 9,500 rpm using a VDI 25 (VWR, USA) homogeniser. The cells were then lysed using a Microfluidiser processor M-110L Pneumatic (Microfluidics, USA) at 60 PSI and membranes collected by ultracentrifugation at 204.7 k×g for 1 h. The supernatant was discarded and the pellet was resuspended and homogenised in 90 s at 9,500 rpm in 50 mL (25 mL for each 2 L culture) of buffer containing 50 mM Hepes pH 7.5, 150 mM NaCl, 3 Roche EDTA-free protease inhibitor cocktail tablets and 1 mM PMSF. The resulting membranes were then stored at −80° C.
(§3) [^3H]-radioligand binding assay. After thawing, membrane homogenates were resuspended in the binding buffer (8.5 mM HEPES, pH 7.4, 1.3 mM CaCl2, 1.2 mM MgSO4, 118 mM NaCl, 4.7 mM KCl, 4 mM NaHCO3, 1.2 mM KH2PO4, 11 mM glucose) to a final assay concentration of 6.4 μg (OX1) or 1.4 μg (OX2) protein per well. Saturation isotherms were determined by the addition of various concentrations (0-30 nM) of [^3H]-4-(2,6-difluoro-4-methoxybenzyl)-2-(5,6-dimethoxypyridin-3-yl)-2H-1,2,4-benzothiadiazin-3(4H)-one 1,1-dioxide (Christopher et al, MedChemComm., 2015, 6, 947-955) in a total reaction volume of 250 μL for 90 min at rt. At the end of the incubation, membranes were filtered onto a 96-well GF/B filter pre-incubated with 0.5% polyethylenimine, with a Tomtec cell harvester and washed 5 times with 0.5 mL distilled water. Non-specific binding (NSB) was measured in the presence of 3.33 μM [4-(5-chloro-1,3-benzoxazol-2-yl)-7-methyl-1,4-diazepan-1-yl][5-methyl-2-(2H-1,2,3-triazol-2-yl)phenyl]methanone (Wertz et al, Angew. Chem. Int. Ed., 2011, 50, 11511-11515). Radioactivity on the filter was counted (1 min) on a Microbeta radiometric plate counter (Perkin Elmer) after addition of 50 μL of scintillation fluid (LabLogic: Part #SG-BXX-14). […] IC50 values were derived from the inhibition curve and the equilibrium dissociation constant (Ki) values were calculated using the Cheng-Prusoff equation.

The target in assay [3] is T1, Human OX1 receptor. The experiment in a line: [3H]-radioligand binding assay, OX1. To be noted: for pKi average OX1: competition binding, membranes of SF21 cells, Ki by Cheng-Prusoff.
Text: as §2, §3

The target in assay [4] is T2, Human OX2 receptor. The experiment in a line: IPone accumulation assay, CHO cells expressing OX2. The assay is classed as cell-based. To be noted: antagonism of orexin A (EC80 40 nM)-induced inositol phosphate turnover, read-out: fpKb average OX2 (converted). Here is the method:
as §1, with “Generation of CHO stable cell lines expressing the human OX1R and OX2R. Stable cell lines for the human OX1R and OX2R receptors were generated through the transfection of CHO cells using the transfection reagent Genejuice (Novagen number 70967) and cDNA coding for either the human OX1R or OX2R. Cells were cultured in Sigma Nutrient Mixture F-12 Ham media (catalog number N6658) supplemented with 10% heat-inactivated FBS. Forty-eight hours after transfection, cells were harvested and placed under geneticin selection by culturing in Sigma Nutrient Mixture F-12 Ham media supplemented with 10% heat-inactivated FBS and geneticin (ThermoFisher Catalog number: 10131035). Selection of the final stable clone for each receptor was made on the basis of receptor expression, assay signal to noise and robustness though increasing passage. Selected clones for the human OX1R and OX2R were then frozen down into liquid nitrogen using Cell Freezing Medium-DMSO (Sigma-Aldrich catalog number: C6164). IPone accumulation” for “IPone accumulation”, “(CisBio: Part #62[…]) to measure” for “(CisBio: Part #62IPAPEJ) to measure”, “challenge concentration ( 20 nM (OX1)” for “challenge concentration (˜20 nM (OX1)”

T1 sequence (O43613 whole entry): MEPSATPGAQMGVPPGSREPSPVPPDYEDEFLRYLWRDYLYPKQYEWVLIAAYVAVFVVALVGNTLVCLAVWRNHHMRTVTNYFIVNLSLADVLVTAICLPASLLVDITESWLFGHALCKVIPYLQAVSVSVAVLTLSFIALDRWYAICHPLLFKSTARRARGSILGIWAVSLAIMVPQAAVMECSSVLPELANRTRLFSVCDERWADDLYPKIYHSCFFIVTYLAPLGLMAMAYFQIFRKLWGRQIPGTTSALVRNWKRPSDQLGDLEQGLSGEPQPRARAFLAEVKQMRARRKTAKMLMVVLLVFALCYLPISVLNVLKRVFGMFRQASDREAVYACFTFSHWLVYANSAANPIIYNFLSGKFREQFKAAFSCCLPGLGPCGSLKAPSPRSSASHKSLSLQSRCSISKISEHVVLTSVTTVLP
T2 sequence (O43614 whole entry): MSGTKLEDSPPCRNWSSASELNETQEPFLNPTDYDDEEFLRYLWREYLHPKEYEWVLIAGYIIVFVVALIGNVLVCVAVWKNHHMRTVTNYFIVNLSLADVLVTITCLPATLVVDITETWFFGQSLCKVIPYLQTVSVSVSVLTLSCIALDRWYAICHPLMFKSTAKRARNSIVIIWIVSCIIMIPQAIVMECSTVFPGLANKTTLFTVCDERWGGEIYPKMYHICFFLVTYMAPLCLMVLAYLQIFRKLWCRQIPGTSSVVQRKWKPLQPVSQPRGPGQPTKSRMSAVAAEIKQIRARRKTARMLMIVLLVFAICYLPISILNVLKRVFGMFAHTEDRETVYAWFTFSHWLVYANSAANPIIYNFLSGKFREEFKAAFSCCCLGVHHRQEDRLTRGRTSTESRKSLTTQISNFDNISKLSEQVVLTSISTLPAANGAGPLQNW

In the case of `CC(=O)Nc1ccc(-n2nccn2)c(C(=O)N[C@H]2CCC[C@@H]2COc2ccc(F)cn2)n1` [Example 26, 6-acetamido-N-[(1S,2S)-2-[(5-fluoro-2-pyridyl)oxymethyl]cyclopentyl]-3-(triazol-2-yl)pyridine-2-carboxamide], the Kb at Human OX1 receptor [1] was 316 nM; at Human OX2 receptor [4], greater than 1000 nM. Moreover, the “pKi average OX2” value on Human OX2 receptor [2] is recorded as less than 5.1. Moreover, on Human OX1 receptor [3], the “pKi average OX1” value is given as 7.9.
Take `CC(=O)Nc1ccc(-n2nccn2)c(C(=O)N[C@H]2CCC[C@@H]2COc2ccc(F)cc2)n1` [Example 3, 6-acetamido-N-[(1S,2S)-2-[(4-fluorophenoxy)methyl]cyclopentyl]-3-(triazol-2-yl)pyridine-2-carboxamide]: the Kb at Human OX1 receptor [1] is 20 nM; on Human OX2 receptor [4], 1260 nM. The “pKi average OX2” value on Human OX2 receptor [2] is given as 5.4. Moreover, the “pKi average OX1” value at Human OX1 receptor [3] amounted to 8.3.
In the case of `Nc1ccc(-n2nccn2)c(C(=O)N[C@H]2CCC[C@@H]2COc2ccc(F)cc2)n1` [Example 4, 6-amino-N-[(1S,2S)-2-[(4-fluorophenoxy)methyl]cyclopentyl]-3-(triazol-2-yl)pyridine-2-carboxamide], the Kb was 10 nM on Human OX1 receptor [1] and greater than 1260 nM at Human OX2 receptor [4]. In addition, the “pKi average OX2” value at Human OX2 receptor [2] is 5.9. The “pKi average OX1” value on Human OX1 receptor [3] was determined as 8.0.
Take `COCC(=O)Nc1ccc(-c2ncccn2)c(C(=O)N[C@H]2CCC[C@@H]2COc2ccc(F)cc2)n1` [Example 16, N-[(1S,2S)-2-[(4-fluorophenoxy)methyl]cyclopentyl]-6-[(2-methoxyacetyl)amino]-3-pyrimidin-2-yl-pyridine-2-carboxamide]: the Kb on Human OX1 receptor [1] is 200 nM; at Human OX2 receptor [4] it was greater than 1000 nM. Moreover, the “pKi average OX2” value on Human OX2 receptor [2] is given as less than 5.1. Further, on Human OX1 receptor [3], the “pKi average OX1” value was 7.7.
Consider `CC(=O)Nc1cnc(-n2nccn2)c(C(=O)N[C@H]2CCC[C@@H]2COc2ccc(F)cc2)c1` [Example 25, 5-acetamido-N-[(1S,2S)-2-[(4-fluorophenoxy)methyl]cyclopentyl]-2-(triazol-2-yl)pyridine-3-carboxamide], for which the values for the Kb on Human OX1 receptor [1] and on Human OX2 receptor [4] were 3.98 nM and greater than 631 nM, respectively. The “pKi average OX2” value on Human OX2 receptor [2] worked out at 5.5. In addition, the “pKi average OX1” value on Human OX1 receptor [3] is reported as 8.5.
The corresponding values for `CC(=O)Nc1ccc(-c2ncc(F)cn2)c(C(=O)N[C@H]2CCC[C@@H]2COc2ccc(F)cc2)n1` [Example 21, 6-acetamido-N-[(1S,2S)-2-[(4-fluorophenoxy)methyl]cyclopentyl]-3-(5-fluoropyrimidin-2-yl)pyridine-2-carboxamide] are 20 nM, greater than 794 nM, 5.6 and 8.2.
`O=C(N[C@H]1CCC[C@@H]1COc1ccc(F)cc1)c1nc(NC(=O)C2CC2)ccc1-n1nccn1` [Example 13, 6-(cyclopropanecarbonylamino)-N-[(1S,2S)-2-[(4-fluorophenoxy)methyl]cyclopentyl]-3-(triazol-2-yl)pyridine-2-carboxamide]: on Human OX2 receptor [2], the “pKi average OX2” value is less than 6.0. Further, the “pKi average OX1” value on Human OX1 receptor [3] was 7.8. For the same compound, at Human OX2 receptor [4], the Kb was greater than 1000 nM.
Turning to `CC(=O)Nc1cc(C(=O)N[C@H]2CCC[C@@H]2COc2ccc(F)cc2)c(-n2nccn2)cn1` [Example 23, 2-acetamido-N-[(1S,2S)-2-[(4-fluorophenoxy)methyl]cyclopentyl]-5-(triazol-2-yl)pyridine-4-carboxamide], the Kb on Human OX1 receptor [1] was 3.16 nM; at Human OX2 receptor [4] it was greater than 63.1 nM. The “pKi average OX2” value on Human OX2 receptor [2] was 6.5. Besides, at Human OX1 receptor [3], the “pKi average OX1” value is reported as 8.9.
Regarding `Nc1ccc(-c2ncccn2)c(C(=O)N[C@H]2CCC[C@@H]2COc2ccc(F)cc2)n1` [Example 12, 6-amino-N-[(1S,2S)-2-[(4-fluorophenoxy)methyl]cyclopentyl]-3-pyrimidin-2-yl-pyridine-2-carboxamide], the Kb on Human OX1 receptor [1] is 5.01 nM. For the same compound, the “pKi average OX1” value at Human OX1 receptor [3] amounted to 8.2.
As to `COc1cc(F)c(CN2C(=O)N(c3cnc(OC)c(OC)c3)S(=O)(=O)c3ccccc32)c(F)c1` [[^3H]-4-(2,6-difluoro-4-methoxybenzyl)-2-(5,6-dimethoxypyridin-3-yl)-2H-1,2,4-benzothiadiazin-3(4H)-one 1,1-dioxide, reference compound], the values for the Kd on Human OX2 receptor [2] (saturation isotherms) and at Human OX1 receptor [3] (saturation isotherms) were 0.75 nM and 1.5 nM, respectively.
